Legend:
[1] = target: T1, Tyrosine-protein phosphatase non-receptor type 11 (Homo sapiens, UniProt Q06124); experiment: Inhibition of recombinant SHP2
T1 sequence (Q06124 whole entry): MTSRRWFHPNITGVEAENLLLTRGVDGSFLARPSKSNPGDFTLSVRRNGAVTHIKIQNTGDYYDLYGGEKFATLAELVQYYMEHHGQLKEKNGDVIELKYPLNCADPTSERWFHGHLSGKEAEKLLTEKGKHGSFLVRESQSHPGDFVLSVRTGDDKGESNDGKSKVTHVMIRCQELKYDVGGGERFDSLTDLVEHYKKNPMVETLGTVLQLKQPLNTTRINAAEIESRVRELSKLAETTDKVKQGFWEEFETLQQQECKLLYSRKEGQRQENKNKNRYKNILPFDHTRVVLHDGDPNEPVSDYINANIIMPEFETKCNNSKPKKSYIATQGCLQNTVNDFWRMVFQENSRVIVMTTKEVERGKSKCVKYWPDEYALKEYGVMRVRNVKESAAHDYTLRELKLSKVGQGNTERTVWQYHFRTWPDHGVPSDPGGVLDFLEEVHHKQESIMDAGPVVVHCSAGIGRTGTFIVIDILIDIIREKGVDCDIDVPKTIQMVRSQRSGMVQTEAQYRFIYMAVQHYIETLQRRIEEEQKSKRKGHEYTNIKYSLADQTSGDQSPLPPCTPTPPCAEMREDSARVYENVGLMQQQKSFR

[2] = target: Tyrosine-protein phosphatase non-receptor type 6 (Homo sapiens, UniProt P29350); experiment: Inhibition of recombinant SHP1
Sequence of Tyrosine-protein phosphatase non-receptor type 6 (P29350 whole entry): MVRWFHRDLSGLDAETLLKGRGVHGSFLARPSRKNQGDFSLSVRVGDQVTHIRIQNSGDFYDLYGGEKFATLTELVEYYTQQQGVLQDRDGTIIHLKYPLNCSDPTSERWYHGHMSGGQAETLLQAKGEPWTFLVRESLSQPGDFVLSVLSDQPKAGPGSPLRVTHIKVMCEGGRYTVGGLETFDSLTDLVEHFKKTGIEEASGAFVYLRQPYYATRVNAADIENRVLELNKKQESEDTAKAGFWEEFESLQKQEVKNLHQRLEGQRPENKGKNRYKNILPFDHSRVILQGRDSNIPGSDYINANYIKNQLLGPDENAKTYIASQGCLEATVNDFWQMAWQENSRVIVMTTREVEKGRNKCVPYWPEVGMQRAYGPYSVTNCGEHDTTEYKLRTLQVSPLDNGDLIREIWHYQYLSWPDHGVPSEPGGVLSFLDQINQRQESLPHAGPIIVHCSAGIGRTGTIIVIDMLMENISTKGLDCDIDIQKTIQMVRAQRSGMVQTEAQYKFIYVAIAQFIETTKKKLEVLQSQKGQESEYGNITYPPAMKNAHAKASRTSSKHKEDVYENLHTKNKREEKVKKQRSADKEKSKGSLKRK

[3] = target: T2, Tyrosine-protein phosphatase non-receptor type 1 (Homo sapiens, UniProt P18031); experiment: Inhibition of recombinant PTP1B
T2 sequence (P18031 whole entry): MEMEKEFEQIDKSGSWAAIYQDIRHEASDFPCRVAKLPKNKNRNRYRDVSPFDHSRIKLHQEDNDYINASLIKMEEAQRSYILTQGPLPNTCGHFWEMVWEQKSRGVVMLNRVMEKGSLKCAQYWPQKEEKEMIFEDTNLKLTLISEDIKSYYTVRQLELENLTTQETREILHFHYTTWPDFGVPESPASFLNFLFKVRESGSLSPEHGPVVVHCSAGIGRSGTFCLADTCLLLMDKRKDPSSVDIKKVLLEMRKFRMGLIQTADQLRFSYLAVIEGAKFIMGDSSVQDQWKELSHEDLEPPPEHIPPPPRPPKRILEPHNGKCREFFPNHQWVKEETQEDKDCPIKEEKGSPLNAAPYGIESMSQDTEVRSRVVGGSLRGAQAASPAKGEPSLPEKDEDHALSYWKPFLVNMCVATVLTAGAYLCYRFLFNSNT

[4] = target: T3, Tyrosine-protein phosphatase non-receptor type 7 (Homo sapiens, UniProt P35236); experiment: Inhibition of recombinant HePTP
T3 sequence (P35236 whole entry): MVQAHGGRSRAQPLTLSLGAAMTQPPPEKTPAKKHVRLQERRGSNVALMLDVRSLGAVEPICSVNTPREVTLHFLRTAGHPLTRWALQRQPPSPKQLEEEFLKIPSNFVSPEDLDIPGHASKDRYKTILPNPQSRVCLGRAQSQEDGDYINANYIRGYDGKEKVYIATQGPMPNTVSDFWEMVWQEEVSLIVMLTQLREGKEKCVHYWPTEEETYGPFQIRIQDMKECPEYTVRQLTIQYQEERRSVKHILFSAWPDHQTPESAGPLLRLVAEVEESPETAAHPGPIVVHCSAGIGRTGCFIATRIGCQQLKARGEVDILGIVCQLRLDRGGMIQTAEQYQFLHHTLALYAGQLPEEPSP

[5] = target: T4, Tyrosine-protein phosphatase non-receptor type 11 (Homo sapiens) (UniProt Q06124)
T4 sequence (whole entry): T1 sequence (Q06124 whole entry)
Description: Mixed inhibition of recombinant SHP2 by Lineweaver-Burk plot analysis

[6] = target: T4, Tyrosine-protein phosphatase non-receptor type 11 (Homo sapiens); remark: listed apart in the source
Description: Mixed inhibition of recombinant SHP2 at enzyme-substrate complex by Lineweaver-Burk plot analysis

[7] = target: T1, Tyrosine-protein phosphatase non-receptor type 11; experiment: Binding affinity to recombinant SHP2 by surface plasmon […]

Structure (SMILES) | IC50 [1] [µM] | IC50 [2] [µM] | IC50 [3] [µM] | IC50 [4] [µM] | Kii [5] [µM] | Kis [6] [µM] | Kd [7] [µM]
COc1ccc2c(c1)CC[C@@H]1[C@@H]2CC[C@@]2(C)[C@H]1CC[C@@]21CCNP(=O)(N(CCCl)CCCl)O1 (some centres not stated) | > 300 |  |  |  |  |  | 
CC1=C(O)C(=O)C=C2C1=CC=C1[C@@]2(C)CC[C@@]2(C)[C@@H]3C[C@](C)(C(=O)O)CC[C@]3(C)CC[C@]12C [CELASTROL] | 3.3 | 27.8 | 13.2 | 75.7 |  |  | 
CC1(C)[C@@H](O)CC[C@]2(C)[C@H]3C(=O)C=C4[C@@H]5C[C@@](C)(C(=O)O)CC[C@]5(C)CC[C@@]4(C)[C@]3(C)CC[C@@H]12 [ENOXOLONE] | 9.6 | 65.4 |  | > 300 |  |  | 
C[C@]12CC[C@@H]3c4ccc(O)cc4CC[C@H]3[C@@H]1CC[C@@H]2OP(=O)(O)O [ESTRADIOL PHOSPHATE] | 19.9 | > 300 | > 300 | > 300 |  |  | 
C[C@]12CC[C@@H]3c4ccc(O)cc4CC[C@H]3[C@@H]1CC[C@@H]2O [ESTRADIOL] | > 300 |  |  |  |  |  | 
C[C@]12CC[C@@H]3c4ccc(OC(=O)N(CCCl)CCCl)cc4CC[C@H]3[C@@H]1CC[C@@H]2OP(=O)(O)O [ESTRAMUSTINE PHOSPHATE] | 17.1 | 40.4 | 62.4 | 153 | 10.8 | 22.8 | 8.4
C[C@]12CC[C@@H]3c4ccc(OC(=O)N(CCCl)CCCl)cc4CC[C@H]3[C@@H]1CC[C@@H]2O [ESTRAMUSTINE] | > 300 |  |  |  |  |  | 
CC1=C(O)C(=O)C=C2C1=CC=C1[C@@]2(C)CC[C@@]2(C)[C@@H]3C[C@@H](C)C(=O)C[C@]3(C)CC[C@]12C [TINGENONE] | 61.6 |  |  |  |  |  | 

Source: ChEMBL document CHEMBL1641477, “Shp2 protein tyrosine phosphatase inhibitor activity of estramustine phosphate and its triterpenoid analogs” (Bioorg Med Chem Lett, 2011)
